Source: US20220117964A1, “COMBINATION OF FAK INHIBITOR AND BTK INHIBITOR FOR TREATING A DISEASE” (ASCENTAGE PHARMA (SUZHU) CO., LTD., priority 2019, published 2022)
Where “and” joins values, the source holds several entries; their conditions need not be identical. Equal values may be shown once.

Tests used:
[1] = tested on: phosphorylated-FAK (p-FAK, Tyr397); assay: Western blot, KYSE-150 and KYSE-520 cells; format: cell-based; conditions: KYSE-150 (1 μM Compound 5, 1 μM Ibrutinib) and KYSE-520 (1 μM Compound 5, 0.5 μM Ibrutinib), 24 hours
Description: (§1) The cells were lysed on ice with 1× cell lysis buffer containing 1% protease inhibitor (PMSF) and 1% phosphokinase inhibitor for 30 minutes, centrifuged at 12000 rpm and 4° C. for 15 minutes, and the supernatant protein lysate was collected. The protein concentration was measured by BCA protein concentration detection kit. The cell protein lysates (20 to 50 μg) were separated using 8-12% SDS-PAGE electrophoresis. The separated proteins were transferred to a PVDF membrane. The PVDF membrane was blocked with 5% BSA buffer at room temperature for 30 minutes to 1 hour, and then incubated overnight on a 4° C. shaker with 1× TBST containing primary antibody. The redundant primary antibody was eluted, and the membrane was washed 3 times with 1× TBST, 5 to 10 minutes for each time. The protein band membrane was incubated with horseradish peroxidase-labeled secondary antibody dilution for 1 hour at room temperature, and the membrane was washed 3 times with 1× TBST, 5 to 10 minutes for each time. The signal generation and detection were performed using an ECL chemiluminescence ultrasensitive colorimetric kit and a chemiluminescence imaging system. The primary antibodies used in this experiment included: EGFR, (CST, Cat.4267S); phosphorylated EGFR (p-EGFR (Tyr1068)), (CST, Cat.3777T); FAK, (CST, Cat.3285S); phosphorylated FAK (p-FAK (Tyr397)), (CST, Cat.8556T); AKT, (CST, Cat.4685S); phosphorylated p-AKT (Ser473), (CST, Cat.9271S); ERK, (CST,Cat.4695S); phosphorylated ERK (p-ERK (Thr202/Tyr204)), (CST, Cat.4370T); phosphorylated MEK (p-MEK (Ser217/221)), (CST, Cat.9121S);BTK, (Immunoway, Cat. YM1294); C-Myc, (CST, Cat. 5605); phosphorylated C-Myc, (CST, Cat. 13748); Cyclin B1 (CST, Cat. 12231S), Cylin D1 (CST, Cat.2978S), GAPDH (ABGENT, Cat.AM1020B). The secondary antibodies used in this experiment included goat-anti-rabbit secondary antibody (Senta, Cat. Sc-2004) and goat-anti-mouse secondary antibody (Senta, Cat. Sc-2005).
(§2) (1) The experimental method was as described in the items (1), (2), (5) of Example 2. […] The changes in signaling pathway of related proteins were determined by Western blotting assay.

[2] = tested on: human KYSE-150 mouse xenograft tumor model; assay: Human KYSE-150 mouse xenograft tumor model, antitumor effect; format: in vivo, BALB/c Nude mice; conditions: for RTV on day 12 after administration (mean ± standard error): day 12 (last dose); for RTV on day 12 after administration (mean ± standard error) / T/C on day 12 after administration (%) / RTV on day 18 after administration (mean ± standard error) / T/C on day 18 after administration (%): Compound 5 100 mg/kg p.o., Ibrutinib 25 mg/kg i.p.; for RTV on day 12 after administration (mean ± standard error) / RTV on day 18 after administration (mean ± standard error): qd × 5d, withdrawal 2 days/week × 2 weeks; for Tumor state on day 12 after administration: CR: day 12, animals with complete regression of tumor / group; for Tumor state on day 12 after administration: PR: day 12, animals with partial regression of tumor / group; for Tumor state on day 12 after administration: SD: day 12, animals with stable disease / group; for RTV on day 18 after administration (mean ± standard error): day 18 (after drug withdrawal); for Tumor state on day 18 after administration: CR: day 18, animals with complete regression of tumor / group; for Tumor state on day 18 after administration: PR: day 18, animals with partial regression of tumor / group; for Tumor state on day 18 after administration: SD: day 18, animals with stable disease / group
Description: The animals used were BALB/c Nude mice, 4-6 weeks old, female. Animal body weight was 14-16±20% g. The experimental animals were provided by Beijing Weitonglihua Experimental Animal Technology Co., Ltd. (Vital River Laboratories, VRL, license number: SOCK (J) 2016-0011). Animal certificate number: 11400700325794.
Compound 5 was intragastrically administered at a dose of 100 mg/kg and a volume of 200 μl. The preparation for the administration was prepared every 3 days and stored at 4° C. when it has not been in use. The formulation and use of the preparation were carried out under sterile conditions. […] The preparation for the administration was prepared every 3 days and stored at 4° C. The formulation and use of the preparation were carried out under sterile conditions.
Forty immunodeficiency mice were subcutaneously injected with 5×10^6 KYSE-150 cells suspended in 100 μl PBS in the right armpit to establish a xenograft tumor model. […] When the tumor reached an appropriate size (50 to 100 mm^3), the animals were randomly assigned according to the tumor volume, in which the difference in tumor volume among groups should be less than 10% of the mean value, and at last 7 mice were assigned to each group, and the administration was star ted on the day of group assignment (i.e., d1).
A subcutaneous immunodeficient-mice xenograft tumor model of human tumor was established by cell inoculation method: tumor cells in logarithmic growth phase were collected, counted and resuspended in 1×PBS, and the concentration of cell suspension was adjusted to 5×10^7/mL. 1 mL syringe ([…]) was used to inoculate the tumor cells subcutaneously on the right back of immunodeficient mice, 5×10^6/0.1 mL/mouse. All animal experiments were performed strictly in accordance with the guidelines for Institutional Animal Care and Use Committee (IACUC) of Sun Yat-sen University and Suzhou Yasheng Pharmaceutical Co., Ltd. The calculation of related parameters referred to China NMPA “Technical Guidelines for Nonclinical Research of Cytotoxic Antitumor Drugs”.
Animal body weight and tumor size were measured twice per week during the experiment. The growth of tumor was periodically observed, and when the tumor grew to an average volume of 50 to 100 mm^3, the mice were randomly divided into groups for administration according to tumor size and body weight. The status and deaths of the animals were observed every day. The routine monitoring included the effects of tumor growth and drug administration on the normal behaviors of animals, specially included the activity of experimental animals, food and water consumption, weight gain or loss, eyes, hair, and other abnormal conditions. The deaths and clinical symptoms observed during the experiment were recorded in the raw data. The entire operation for administration, measurement of mouse weight and tumor volume was performed in a clean bench. According to the requirements of the experimental protocol, when the long diameter of tumor was greater than 20 mm, the experimental end point was reached and the mice were euthanized. Tumor tissues were collected, weighed and photographed for recording.
Tumor volume (TV) was calculated as: TV=a×b^2/2, wherein a and b represented the measured length and width of tumor, respectively. The relative tumor volume (RTV) was calculated as: RTV=Vt/V1, wherein V1 represented the tumor volume at the time of group assignment and administration, and Vt represented the tumor volume on a certain day after administration.

Cyclin B1 = assay: Western blot, KYSE-150 and KYSE-520 cells; format: cell-based; conditions: KYSE-150 (1 μM Compound 5, 1 μM Ibrutinib) and KYSE-520 (1 μM Compound 5, 0.5 μM Ibrutinib), 24 hours
Description: as §1, §2

Cyclin D1 = assay: Western blot, KYSE-150 and KYSE-520 cells; format: cell-based; conditions: KYSE-150 (1 μM Compound 5, 1 μM Ibrutinib) and KYSE-520 (1 μM Compound 5, 0.5 μM Ibrutinib), 24 hours
Description: as §1, §2

[3] = tested on: phosphorylated EGFR (p-EGFR, Tyr1068); assay: Western blot, KYSE-150 and KYSE-520 cells; format: cell-based; conditions: KYSE-150 (1 μM Compound 5, 1 μM Ibrutinib) and KYSE-520 (1 μM Compound 5, 0.5 μM Ibrutinib), 24 hours
Description: as §1, §2

[4] = tested on: phosphorylated ERK (p-ERK, Thr202/Tyr204); assay: Western blot, KYSE-150 and KYSE-520 cells; format: cell-based; conditions: KYSE-150 (1 μM Compound 5, 1 μM Ibrutinib) and KYSE-520 (1 μM Compound 5, 0.5 μM Ibrutinib), 24 hours
Description: as §1, §2

[5] = tested on: phosphorylated MEK (p-MEK, Ser217/221); assay: Western blot, KYSE-150 and KYSE-520 cells; format: cell-based; conditions: KYSE-150 (1 μM Compound 5, 1 μM Ibrutinib) and KYSE-520 (1 μM Compound 5, 0.5 μM Ibrutinib), 24 hours
Description: as §1, §2

Row | Structure (SMILES) | protein expression level of phosphorylated-FAK (p-FAK, Tyr397) [1] | RTV on day 12 after administration (mean ± standard error) [2] | Tumor state on day 12 after administration: CR [2] | Tumor state on day 12 after administration: PR [2] | Tumor state on day 12 after administration: SD [2] | T/C on day 12 after administration (%) [2] [%] | RTV on day 18 after administration (mean ± standard error) [2] | Tumor state on day 18 after administration: CR [2] | Tumor state on day 18 after administration: PR [2] | Tumor state on day 18 after administration: SD [2] | T/C on day 18 after administration (%) [2] [%] | protein expression level of Cyclin B1 (Cyclin B1) | protein expression level of Cyclin D1 (Cyclin D1) | protein expression level of phosphorylated EGFR (p-EGFR, Tyr1068) [3] | protein expression level of phosphorylated ERK (p-ERK, Thr202/Tyr204) [4] | protein expression level of phosphorylated MEK (p-MEK, Ser217/221) [5] | Tumor state on day 18 after administration: remission rate, % ([2]; day 18, remission including CR, PR and SD)
1 | Cc1cc(Nc2ncc(Cl)c(Nc3ccccc3S(=O)(=O)C(C)C)n2)c(OC(C)C)cc1C1=CCN(C2CCOCC2)CC1 [Compound 5, 5-chloro-N^2-(2-isopropoxy-5-methyl-4-(1-(tetrahydro-2H-pyran-4-yl)-1,2,3,6-tetrahydropyridin-4-yl)phenyl)-N^4-(2-(isopropylsulfonyl)phenyl)pyrimidine-2,4-diamine] | significantly decrease | 1.4 | 0/7 CR | 1/7 and 1/7 PR | 1/7 and 1/7 SD | 49.8 | 3.0 | 0/7 CR | 1/7 and 1/7 PR | 0/7 SD | 55.8 |  |  |  |  |  | 
2 | C=CC(=O)N1CCC[C@@H](n2nc(-c3ccc(Oc4ccccc4)cc3)c3c(N)ncnc32)C1 [Ibrutinib] |  | 1.4 | 0/7 CR | 1/7 and 1/7 PR | 1/7 and 1/7 SD | 48.6 | 3.8 | 0/7 CR | no animal and 0/7 PR | no animal and 0/7 SD | 70.2 | significantly decrease | significantly decrease | significantly decrease | significantly decrease | significantly decrease | (0%)
